Here are results for 2 molecules from patent US20020107231A1, “Remedy for autoimmune diseases” (priority 1992, published 2002).

Counter-ions that a name gives are not always drawn.

Format in all cases: in vivo, mouse
For experiment [1], the system named is MRL/Mp-lpr/lpr mice. In words: Suppression of glomerulonephritis (Mac 2 number per glomerulus) by concomitant use of toremifene citrate with glucocorticoid. As to conditions: for change in Mac 2 number as compared with the control (in words): all dose groups, 9 weeks, t-test. As to the method: Twelve-week old female MRL/Mp-lpr/lpr mice were used in the examination. Thirty miligrams per kg or 15 mg/kg of toremifene citrate (TOR) was orally administered to each mouse twice a day for 9 weeks from the 12th week to the 21st week. A glucocorticoid (prednisolone), 8, 4 and 2 mg/kg/day, were subcutaneously administered to mice once a day as a positive control drug. The concomitant use of tremifene with the glucocorticoid was also carried out according to the same regimen as above. The kidney was taken out from each mouse the day after the completion of the whole administration period and fixed in a PLP fixative. Frozen sections were made from the fixed kidney and used for an immunostaining with an anti-Mac-2 monoclonal antibody (Hybritec Inc., San Diego, USA). The number of Mac-2 positive cells (activated macrophages) invading each of 10 to 20 glomeruli of the kidney, which is hereinafter referred to as Mac 2 number, was counted under a microscopy to determine an average Mac 2 number per glomerulus. The degree of severeness of glomerulonephritis was estimated in terms of the average Mac 2 number (n=13 for each group).

Experiment [2] relates to MRL/Mp-lpr/lpr mice. In words: Inhibition of sialadenitis, angitis and arthritis of MRL/Mp-lpr/lpr mice (histopathology). As to conditions: 100 mg/kg orally once a day for 13 weeks. The method, then: (§1) Eight-week old female MRL/Mp-lpr/lpr mice (Clea Japan, Inc.) were used in this examination. Toremifene citrate (JP-B-4 19973) was suspended in carboxymethylcellulose to prepare a 0.5% suspension. This compound (100 mg/kg) was orally administered to each mouse once a day for 13 weeks.
The salivary gland, renal blood vessel and knee joint of each mouse in the control group and the toremifene citrate treated group were histopathologically examined.
1) The salivary gland, kidney and knee joint were fixed in 10% buffered formalin, and then paraffin sections thereof were prepared by an ordinary method to prepare HE and PAS stained specimens. The extent of the disorder was scored and classified into the following groups: […]

Experiment [3] relates to MRL/Mp-lpr/lpr mice. In words: Suppression of renal disorder (glomerulonephritis score, BUN) of MRL/Mp-lpr/lpr mice. Particulars: 100 mg/kg orally once a day for 13 weeks. The method, then: as §1
An autopsy was performed on the mice of the control group and the toremifene citrate treated group after the completion of the administration to examine their kidneys pathohistologically. The blood urea nitrogen (BUN) of the serum in each group was examined to confirm changes in the renal function.
1) The kidney was fixed in 10% buffered formalin, and then paraffin sections thereof were prepared by an ordinary method to prepare HE and PAS stained specimens. The extent of the disorder of the renal glomeruli was scored and classified into the following groups:
2) The BUN was determined with a Fuji Dry Chem Analyzer.

For experiment [4], the system named is NZB×NZW mice (B/W F1 mice). In words: Comparison of survival time of NZB×NZW F1 mice. As to conditions: for animals alive after one year / animals died at/before the age of 40 weeks / animals still alive after almost two years' time: female mice; for animals alive after one year: female control 20%; for animals died at/before the age of 40 weeks: female control 50% died. As to the method:
NZB×NZW mice (B/W F1 mice) were used as a pathological model of autoimmune diseases (systemic lupus erythematodes). Effect of toremifene citrate on the survival time of the animals was investigated.
F1-hybrids of NZB (female) and NZW (male) mice (B/W F1 mice): Imported from Bomholtgaard, Denmark at the age of five weeks.
Toremifene citrate 30 mg/kg/day: administration 70 mg/kg in polyethylene glycol solution 3 times a week per os to female NZB×NZW F1 mice
Toremifene citrate 3 mg/kg/day: administration 7 mg/kg in polyethylene glycol solution 3 times a week per os to female NZB×NZW F1 mice
All but two female control animals have died during the almost two years' follow-up time. Fifty percents of the animals in this group died before/at the age of 40 weeks, and 20% (4/20) were alive after one year.

Experiment [5] concerns MRL/Mp-lpr/lpr mice. In words: Inhibition of swelling of spleen and lymph node of MRL/Mp-lpr/lpr mice. As to conditions: 100 mg/kg orally once a day for 13 weeks. The method, then:
as §1

The mark [6] stands for this setting: 3 mg/kg/day (7 mg/kg 3 times a week per os).
Where [7] appears, read: 30 mg/kg/day (70 mg/kg 3 times a week per os).

Regarding `C[C@]12C=CC(=O)C=C1CC[C@@H]1[C@@H]2[C@@H](O)C[C@@]2(C)[C@H]1CC[C@]2(O)C(=O)CO` [Prednisolone, prednisolone], the “change in Mac 2 number as compared with the control (in words)” value in the experiment with MRL/Mp-lpr/lpr mice [1] is “did not exhibit any significant decrease in Mac 2 number”. Moreover, the “Mac 2 number” value in the experiment with MRL/Mp-lpr/lpr mice [1] (prednisolone 2 mg/kg subcutaneously once a day for 9 weeks, first series, control 7.5 ± 1.5) was found to be 9.4 ± 1.0; in the experiment on MRL/Mp-lpr/lpr mice [1] (prednisolone 2 mg/kg subcutaneously once a day for 9 weeks, second series, control 11.3 ± 1.2), 7.7 ± 1.0; in the experiment with MRL/Mp-lpr/lpr mice [1] (prednisolone 4 mg/kg subcutaneously once a day for 9 weeks, first series, control 7.5 ± 1.5), 7.9 ± 0.7; in the experiment with MRL/Mp-lpr/lpr mice [1] (prednisolone 4 mg/kg subcutaneously once a day for 9 weeks, second series, control 11.3 ± 1.2), 9.1 ± 1.4; with MRL/Mp-lpr/lpr mice [1] (prednisolone 8 mg/kg subcutaneously once a day for 9 weeks, first series, control 7.5 ± 1.5), 5.8 ± 0.8.
For the molecule `CN(C)CCOc1ccc(/C(=C(/CCCl)c2ccccc2)c2ccccc2)cc1` [Toremifene citrate, 2[4-(Z)-4-Chloro-1,2-Diphenyl-1-Butenyl]Phenoxy-N,N-Dimethylethylamine Citrate], the “attack by sialadenitis, angitis and arthritis (in words)” value with MRL/Mp-lpr/lpr mice [2] was “prevented the mice from being attacked by sialadenitis, angitis and arthritis”. Also, the “Arthritis (score 0-3)” value in the experiment with MRL/Mp-lpr/lpr mice [2] (knee joint, mean ± standard deviation, control 1.6 ± 0.9) is given as 0.4 ± 0.5. Also, in the experiment on MRL/Mp-lpr/lpr mice [2] (renal blood vessel, mean ± standard deviation, control 2.1 ± 0.7), the “Angitis (score 0-3)” value came to 0.9 ± 0.8. The “Sialadenitis (score 0-3)” value in the experiment with MRL/Mp-lpr/lpr mice [2] (salivary gland, mean ± standard deviation, control 2.2 ± 0.6) came out at 0.9 ± 0.8. For the same molecule, the “glomerulonephritis (in words)” value in the experiment on MRL/Mp-lpr/lpr mice [3] is “ameliorated the glomerulonephritis”. Besides, in the experiment with MRL/Mp-lpr/lpr mice [3], the “renal function (in words)” value is “healed the renal function”. For the same molecule, the “Glomerulonephritis (score 0-3, average of 25 renal glomeruli)” value in the experiment on MRL/Mp-lpr/lpr mice [3] (mean ± standard deviation, control 2.4 ± 0.7) was 1.2 ± 0.7. For the same molecule, the BUN in the experiment with MRL/Mp-lpr/lpr mice [3] (serum, mean ± standard deviation, control 43.1 ± 23.9) came to 24.6 ± 4.9 mg/dL. Further, the “animals alive after one year” value in experiment [4] (setting [6]) is 80%; in experiment [4] (setting [7]), 85%. Besides, the “animals died at/before the age of 40 weeks” value is recorded as 1/20 in experiment [4] (setting [6]) and 3/20 in experiment [4] (setting [7]). Moreover, the “life span compared to the female control animals (in words)” value in experiment [4] (both treatment groups (3 and 30 mg/kg/day)) is “lengthened clearly”. In addition, the “animals still alive after almost two years' time” value in experiment [4] (higher dosage group (30 mg/kg/day)) amounted to 10%; in experiment [4] (lower dosage group (3 mg/kg/day)), 25%. The “Mac 2 number” value with MRL/Mp-lpr/lpr mice [1] (TOR 15 mg/kg orally twice a day for 9 weeks, first series, control 7.5 ± 1.5) was 6.5 ± 1.2; in the experiment on MRL/Mp-lpr/lpr mice [1] (TOR 30 mg/kg orally twice a day for 9 weeks, first series, control 7.5 ± 1.5), 6.2 ± 1.0. For the same molecule, in the experiment on MRL/Mp-lpr/lpr mice [1], the “change in Mac 2 number as compared with the control (in words)” value was “did not exhibit any significant decrease in Mac 2 number”. Moreover, the “swelling of the spleen and lymph node (in words)” value in the experiment on MRL/Mp-lpr/lpr mice [5] is “inhibited the swelling of the spleen and lymph node”. Moreover, in the experiment on MRL/Mp-lpr/lpr mice [5] (8-week old female mice, mean ± standard deviation, control 2.34 ± 0.74), the “swelling of spleen ([formula])” value is 1.38 ± 1.06. Also, the “swelling of lymph node ([formula])” value in the experiment with MRL/Mp-lpr/lpr mice [5] (8-week old female mice, mean ± standard deviation, control 6.77 ± 1.70) came to 3.11 ± 1.43.
